The EC50 is the concentration that produces a half-maximal response.

Each structure is given as a SMILES string. Where only a bound is given, the exact number is not on record here.

Assay [1] concerns the target T1, ΔF508-CFTR (Homo sapiens, UniProt P13569, DEL508-508).
T1 construct: host or cells: CFBE41o-, doxycycline-inducible
The assay can be described thus: CFTR cell surface levels using HRP-tagged ΔF508-CFTR expressing CFBE cells, intrinsic corrector capacity. Format: cell-based. The procedure, abridged:
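Here the cells express ΔF508-CFTR with horseradish peroxidase inserted in extracellular loop 4, so only rescued channel at the surface gives luminescent signal. Compounds act on their own, 20 h at the reduced temperature of 33 °C; values are percent activity relative to DMSO and a 3 μM corrector.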

Assay [2] concerns the target T1, ΔF508-CFTR. The assay can be described thus: CFTR cell surface levels using HRP-tagged ΔF508-CFTR expressing CFBE cells, in the presence of a co-corrector. Format: cell-based. In short, it runs like this: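 Cells were seeded with 0.5 μg/mL doxycycline and held 68 h at 37 °C. Test compounds plus 3 μM co-corrector (final 0.1% DMSO) were then added for 20 h at 33 °C. Washed cells received HRP substrate, and luminescence was normalized between DMSO and 3 μM co-corrector controls.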

Where [3] appears, read: HRP-tagged ΔF508-CFTR expressing CFBE cells, intrinsic corrector capacity (no co-corrector), 33° C., 20 hours.
Setting [4] is: HRP-tagged ΔF508-CFTR expressing CFBE cells, in the presence of 3 μM co-corrector.
Setting [5] is: HRP-tagged ΔF508-CFTR CFBE41o- cells, compounds alone (intrinsic corrector capacity), 20 hours at 33° C., positive control 3 μM corrector.
[6] abbreviates: HRP-tagged ΔF508-CFTR CFBE41o- cells, compounds alone (intrinsic corrector capacity), 20 hours at 33° C., read-out: EC50.
The mark [7] stands for this setting: HRP-tagged ΔF508-CFTR expressing CFBE cells, in the presence of 3 μM co-corrector, read-out: EC50.
Setting [8] is: HRP-tagged ΔF508-CFTR expressing CFBE cells, intrinsic corrector capacity (no co-corrector), 33° C., 20 hours, read-out: EC50.

T1 sequence (P13569 with tags, fused parts or gaps DEL508-508): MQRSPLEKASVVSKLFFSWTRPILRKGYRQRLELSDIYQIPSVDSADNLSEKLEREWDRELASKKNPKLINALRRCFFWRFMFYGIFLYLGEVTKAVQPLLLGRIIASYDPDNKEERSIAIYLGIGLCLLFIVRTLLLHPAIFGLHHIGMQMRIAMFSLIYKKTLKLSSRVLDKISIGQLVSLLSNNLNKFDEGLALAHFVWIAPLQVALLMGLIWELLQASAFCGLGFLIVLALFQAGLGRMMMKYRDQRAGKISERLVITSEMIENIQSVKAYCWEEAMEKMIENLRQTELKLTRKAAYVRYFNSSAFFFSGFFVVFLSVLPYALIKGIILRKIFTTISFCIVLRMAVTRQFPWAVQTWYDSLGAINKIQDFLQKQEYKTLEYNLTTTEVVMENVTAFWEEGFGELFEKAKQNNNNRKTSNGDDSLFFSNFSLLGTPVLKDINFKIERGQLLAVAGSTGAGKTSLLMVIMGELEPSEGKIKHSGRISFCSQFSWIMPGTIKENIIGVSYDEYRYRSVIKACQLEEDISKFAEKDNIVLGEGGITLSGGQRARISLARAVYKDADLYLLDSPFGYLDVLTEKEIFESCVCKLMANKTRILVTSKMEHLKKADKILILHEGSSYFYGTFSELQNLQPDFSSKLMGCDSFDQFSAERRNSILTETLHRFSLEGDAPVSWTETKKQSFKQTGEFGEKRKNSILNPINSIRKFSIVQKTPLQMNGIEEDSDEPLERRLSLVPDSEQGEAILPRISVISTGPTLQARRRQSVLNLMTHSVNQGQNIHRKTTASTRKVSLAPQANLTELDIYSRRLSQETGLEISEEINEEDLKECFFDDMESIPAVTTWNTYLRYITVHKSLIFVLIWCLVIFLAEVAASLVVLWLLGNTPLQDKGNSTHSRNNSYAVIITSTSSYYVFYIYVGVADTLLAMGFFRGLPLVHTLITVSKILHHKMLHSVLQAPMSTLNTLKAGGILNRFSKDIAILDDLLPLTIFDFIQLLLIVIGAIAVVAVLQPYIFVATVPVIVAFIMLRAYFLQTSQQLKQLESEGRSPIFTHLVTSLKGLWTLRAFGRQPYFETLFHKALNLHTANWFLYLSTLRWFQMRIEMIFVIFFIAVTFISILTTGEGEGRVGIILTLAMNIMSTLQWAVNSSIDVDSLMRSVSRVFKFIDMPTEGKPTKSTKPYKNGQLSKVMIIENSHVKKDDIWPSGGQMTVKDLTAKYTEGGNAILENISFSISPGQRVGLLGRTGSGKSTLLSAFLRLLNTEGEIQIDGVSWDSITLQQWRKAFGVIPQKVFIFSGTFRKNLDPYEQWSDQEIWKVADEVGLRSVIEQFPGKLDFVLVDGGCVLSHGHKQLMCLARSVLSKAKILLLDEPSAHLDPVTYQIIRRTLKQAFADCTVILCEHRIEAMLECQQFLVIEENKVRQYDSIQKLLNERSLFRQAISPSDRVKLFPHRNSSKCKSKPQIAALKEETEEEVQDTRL

Take `CC(C)(C)OC(=O)N1CC[C@@H]2CN(c3cc(C(=O)O)nc4c3c(C3CCC3)nn4-c3ccccc3)CC[C@@H]21` (racemic) [compound 549, rac-4-[(3aR,7aS)-1-(tert-butoxycarbonyl)octahydro-5H-pyrrolo[3,2-c]pyridin-5-yl]-3-cyclobutyl-1-phenyl-1H-pyrazolo[3,4-b]pyridine-6-carboxylic acid]: the EC50 amounted to 211 nM on ΔF508-CFTR [1] and 61.7 nM on ΔF508-CFTR [2]. In addition, the entries for the “% Activation” value on ΔF508-CFTR [1] (setting [3]) and on ΔF508-CFTR [2] (setting [4]) were 302.2% and 467.2%, respectively.

Turning to `Cc1nn(-c2ccccc2)c2nc(C(=O)O)cc(N3CCN4C(=O)OCC4C3)c12` (centres unmarked) [compound 301, 3-methyl-4-(3-oxotetrahydro-3H-[1,3]oxazolo[3,4-a]pyrazin-7(1H)-yl)-1-phenyl-1H-pyrazolo[3,4-b]pyridine-6-carboxylic acid], the “% Activation” value at ΔF508-CFTR [1] (setting [5]) amounted to 12.64%; on ΔF508-CFTR [2] (setting [4]) it was 117.35%. Also, the concentration for a half-maximal effect (EC50) on ΔF508-CFTR [1] (setting [6]) and on ΔF508-CFTR [2] (setting [7]) was 7500 nM in each case.

With `O=C(O)c1cc(N2CCC(CN3CCC4(CC3)COC4)CC2)c2c(C3CCC3)nn(-c3ccccc3)c2n1` [compound 840, 3-cyclobutyl-4-{4-[(2-oxa-7-azaspiro[3.5]nonan-7-yl)methyl]piperidin-1-yl}-1-phenyl-1H-pyrazolo[3,4-b]pyridine-6-carboxylic acid], the entries for the “% Activation” value at ΔF508-CFTR [1] (setting [3]) and on ΔF508-CFTR [2] (setting [4]) were 164.4% and 368.8%, respectively. The EC50 at ΔF508-CFTR [1] (setting [8]) was determined as 400 nM; on ΔF508-CFTR [2] (setting [7]) it was 250 nM.

`Cc1nn(-c2ccccc2)c2nc(C(=O)O)cc(-c3ccc(NC4CCC4)cc3)c12` [compound 96, 4-[4-(cyclobutylamino)phenyl]-3-methyl-1-phenyl-1H-pyrazolo[3,4-b]pyridine-6-carboxylic acid]: the entries for the “% Activation” value on ΔF508-CFTR [1] (setting [5]) and at ΔF508-CFTR [2] (setting [4]) were 141.5% and 329.75%, respectively. The figures for the EC50 at ΔF508-CFTR [1] (setting [6]) and at ΔF508-CFTR [2] (setting [7]) were 1530 nM and 1200 nM, respectively.

As to `O=C(O)c1cc(N2C[C@@H](F)C[C@@H]2CO)c2c(C3CCC3)nn(-c3ccccc3)c2n1` [compound 514, 3-cyclobutyl-4-[(2R,4S)-4-fluoro-2-(hydroxymethyl)pyrrolidin-1-yl]-1-phenyl-1H-pyrazolo[3,4-b]pyridine-6-carboxylic acid], the “% Activation” value at ΔF508-CFTR [1] (setting [3]) amounted to 37.34%; on ΔF508-CFTR [2] (setting [4]), 178.2%. Also, the EC50 on ΔF508-CFTR [1] (setting [8]) was determined as 3340 nM; on ΔF508-CFTR [2] (setting [7]), 3330 nM.

In the case of `COCC1CCN(Cc2cc(C(=O)O)nc3c2c(C2CCC2)nn3-c2ccc(F)cc2)CC1` [compound 859, 3-cyclobutyl-1-(4-fluorophenyl)-4-{[4-(methoxymethyl)piperidin-1-yl]methyl}-1H-pyrazolo[3,4-b]pyridine-6-carboxylic acid], the “% Activation” value at ΔF508-CFTR [1] (setting [3]) is on record as 89.07%; at ΔF508-CFTR [2] (setting [4]), 291.4%. Moreover, the EC50 at ΔF508-CFTR [1] (setting [8]) was found to be 2230 nM; on ΔF508-CFTR [2] (setting [7]), 2560 nM.

For `Cc1cccc(-n2nc(C(C)C)c3c(N4CCC(C(F)(F)F)C4)cc(C(=O)O)nc32)c1` (centres unmarked) [compound 215, 1-(3-methylphenyl)-3-(propan-2-yl)-4-[3-(trifluoromethyl)pyrrolidin-1-yl]-1H-pyrazolo[3,4-b]pyridine-6-carboxylic acid], the “% Activation” value at ΔF508-CFTR [1] (setting [5]) came to 165.95%; at ΔF508-CFTR [2] (setting [4]), 347.15%. Moreover, the EC50 on ΔF508-CFTR [1] (setting [6]) was determined as 1030 nM; on ΔF508-CFTR [2] (setting [7]) it was 915 nM.

Turning to `N#CC1CCN(c2ccc(-c3cc(C(=O)O)nc4c3c(OC3CCNC3)nn4-c3ccccc3)cn2)CC1` (centres unmarked) [compound 550, 4-[6-(4-cyanopiperidin-1-yl)pyridin-3-yl]-1-phenyl-3-[(pyrrolidin-3-yl)oxy]-1H-pyrazolo[3,4-b]pyridine-6-carboxylic acid], the results for the “% Activation” value at ΔF508-CFTR [1] (setting [3]) and at ΔF508-CFTR [2] (setting [4]) were 4.775% and 122.4%, respectively. The EC50 on ΔF508-CFTR [1] (setting [8]) and at ΔF508-CFTR [2] (setting [7]) was more than 10000 nM each time.

Regarding `CC(C)c1nn(-c2cccc(N3CC(O)C3)c2)c2nc(C(=O)O)cc(-c3ccc(N4CCOCC4)cc3)c12` [compound 225, 1-[3-(3-hydroxyazetidin-1-yl)phenyl]-4-[4-(morpholin-4-yl)phenyl]-3-(propan-2-yl)-1H-pyrazolo[3,4-b]pyridine-6-carboxylic acid], the “% Activation” value is given as 251.5% at ΔF508-CFTR [1] (setting [5]) and 395.7% at ΔF508-CFTR [2] (setting [4]). For the same molecule, the EC50 on ΔF508-CFTR [1] (setting [6]) is 1980 nM; at ΔF508-CFTR [2] (setting [7]) it was 901 nM.

Consider `Cc1cccc(-n2nc(C(C)C)c3c(N4CCC5(C4)CC5(F)F)cc(C(=O)O)nc32)c1` (centres unmarked) [compound 271, 4-(1,1-difluoro-5-azaspiro[2.4]heptan-5-yl)-1-(3-methylphenyl)-3-(propan-2-yl)-1H-pyrazolo[3,4-b]pyridine-6-carboxylic acid], for which the results for the “% Activation” value at ΔF508-CFTR [1] (setting [5]) and on ΔF508-CFTR [2] (setting [4]) were 144.2% and 323.5%, respectively. Further, the half-maximal effective concentration (EC50) on ΔF508-CFTR [1] (setting [6]) came to 924 nM; at ΔF508-CFTR [2] (setting [7]), 396 nM.

On to `COC1CCCN(c2cc(C(=O)O)nc3c2c(C(C)C)nn3-c2cccc(C)c2)C1` (centres unmarked) [compound 190, 4-(3-methoxypiperidin-1-yl)-1-(3-methylphenyl)-3-(propan-2-yl)-1H-pyrazolo[3,4-b]pyridine-6-carboxylic acid], for which the “% Activation” value on ΔF508-CFTR [1] (setting [5]) is given as 136.12%; on ΔF508-CFTR [2] (setting [4]), 301.85%. Also, the figures for the EC50 on ΔF508-CFTR [1] (setting [6]) and on ΔF508-CFTR [2] (setting [7]) were 929 nM and 634 nM, respectively.

On to `COCCOCC1(F)CCCN(c2cc(C(=O)O)nc3c2c(C2CCC2)nn3-c2ccccc2)C1` (centres unmarked) [compound 462, 3-cyclobutyl-4-{3-fluoro-3-[(2-methoxyethoxy)methyl]piperidin-1-yl}-1-phenyl-1H-pyrazolo[3,4-b]pyridine-6-carboxylic acid], for which the “% Activation” value at ΔF508-CFTR [1] (setting [3]) is given as 156.2%; on ΔF508-CFTR [2] (setting [4]), 316.85%. Also, the EC50 at ΔF508-CFTR [1] (setting [8]) was 486 nM; at ΔF508-CFTR [2] (setting [7]), 318 nM.

Consider `O=C(O)c1cc(OC[C@@H](F)C2CCOCC2)c2c(C3CCC3)nn(-c3ccccc3)c2n1` [compound 415, 3-cyclobutyl-4-[(2S)-2-fluoro-2-(oxan-4-yl)ethoxy]-1-phenyl-1H-pyrazolo[3,4-b]pyridine-6-carboxylic acid], for which the figures for the “% Activation” value on ΔF508-CFTR [1] (setting [3]) and on ΔF508-CFTR [2] (setting [4]) were 168.85% and 334.35%, respectively. Also, the EC50 on ΔF508-CFTR [1] (setting [8]) was 487 nM; at ΔF508-CFTR [2] (setting [7]), 249 nM.

Consider `O=C(O)c1cc(-c2ccc(N3CCOCC3)cc2)c2c(C3CCC3)nn(-c3ccc(C(F)(F)F)cc3)c2n1` [compound 356, 3-cyclobutyl-4-[4-(morpholin-4-yl)phenyl]-1-[4-(trifluoromethyl)phenyl]-1H-pyrazolo[3,4-b]pyridine-6-carboxylic acid], for which the entries for the “% Activation” value on ΔF508-CFTR [1] (setting [5]) and on ΔF508-CFTR [2] (setting [4]) were 152.8% and 331.9%, respectively. Further, the half-maximal effective concentration (EC50) at ΔF508-CFTR [1] (setting [6]) was found to be 489 nM; on ΔF508-CFTR [2] (setting [7]), 428 nM.

Regarding `CN1CCC[C@@H](Oc2cc(C(=O)O)nc3c2c(C2CCC2)nn3-c2ccccc2)C1` [compound 496, 3-cyclobutyl-4-{[(3R)-1-methylpiperidin-3-yl]oxy}-1-phenyl-1H-pyrazolo[3,4-b]pyridine-6-carboxylic acid], the “% Activation” value was 32.84% on ΔF508-CFTR [1] (setting [3]) and 145.5% on ΔF508-CFTR [2] (setting [4]). Also, the 50% effective concentration (EC50) at ΔF508-CFTR [1] (setting [8]) turned out to be 3340 nM; on ΔF508-CFTR [2] (setting [7]) it was 2130 nM.

`O=C(O)c1cc(OCC2CCCCC2)c2c(C3CCC3)nn(-c3ccccc3)c2n1` [compound 407, 3-cyclobutyl-4-(cyclohexylmethoxy)-1-phenyl-1H-pyrazolo[3,4-b]pyridine-6-carboxylic acid]: the “% Activation” value on ΔF508-CFTR [1] (setting [3]) turned out to be 125.25%; at ΔF508-CFTR [2] (setting [4]), 323.95%. The EC50 worked out at 925 nM on ΔF508-CFTR [1] (setting [8]) and 662 nM on ΔF508-CFTR [2] (setting [7]).

`Cc1nn(-c2ccccc2)c2nc(C(=O)O)cc(N3CCN(C(=O)N4CCOCC4)CC3)c12` [compound 322, 3-methyl-4-[4-(morpholine-4-carbonyl)piperazin-1-yl]-1-phenyl-1H-pyrazolo[3,4-b]pyridine-6-carboxylic acid]: the results for the “% Activation” value at ΔF508-CFTR [1] (setting [5]) and at ΔF508-CFTR [2] (setting [4]) were 12.25% and 154.55%, respectively. In addition, the 50% effective concentration (EC50) is more than 10000 nM at ΔF508-CFTR [1] (setting [6]) and 3340 nM at ΔF508-CFTR [2] (setting [7]).

As for `COCCN1CCN(C2CCN(c3cc(C(=O)O)nc4c3c(C3CCC3)nn4-c3ccccc3)CC2)CC1` [compound 694, 3-cyclobutyl-4-{4-[4-(2-methoxyethyl)piperazin-1-yl]piperidin-1-yl}-1-phenyl-1H-pyrazolo[3,4-b]pyridine-6-carboxylic acid], the “% Activation” value was determined as 177.4% on ΔF508-CFTR [1] (setting [3]) and 421.9% on ΔF508-CFTR [2] (setting [4]). In addition, the 50% effective concentration (EC50) came to 487 nM on ΔF508-CFTR [1] (setting [8]) and 535 nM at ΔF508-CFTR [2] (setting [7]).

As to `COC1(C)CCN(c2cc(C(=O)O)nc3c2c(C(C)C)nn3-c2ccc(F)cc2)CC1` [compound 397, 1-(4-fluorophenyl)-4-(4-methoxy-4-methylpiperidin-1-yl)-3-(propan-2-yl)-1H-pyrazolo[3,4-b]pyridine-6-carboxylic acid], the “% Activation” value is given as 73.11% at ΔF508-CFTR [1] (setting [3]) and 217.3% at ΔF508-CFTR [2] (setting [4]). Further, the EC50 on ΔF508-CFTR [1] (setting [8]) was found to be 645 nM; at ΔF508-CFTR [2] (setting [7]), 299 nM.

Turning to `O=C(O)c1cc(N2CC[C@@H](F)[C@H](O)C2)c2c(C3CCC3)nn(-c3ccccc3)c2n1` [compound 465, 3-cyclobutyl-4-[(3R,4R)-4-fluoro-3-hydroxypiperidin-1-yl]-1-phenyl-1H-pyrazolo[3,4-b]pyridine-6-carboxylic acid], the “% Activation” value at ΔF508-CFTR [1] (setting [3]) was found to be 91.04%; on ΔF508-CFTR [2] (setting [4]), 244.6%. Besides, the values for the concentration for a half-maximal effect (EC50) on ΔF508-CFTR [1] (setting [8]) and at ΔF508-CFTR [2] (setting [7]) were 1850 nM and 703 nM, respectively.

(Values after patent US9796711B2, “Substituted pyrazolo[3,4-b]pyridin-6-carboxylic acids and method of use” (AbbVie S.àr.l., priority 2015, dated 2017).)
